In one test the target is T1, human β1-adrenoceptor (Homo sapiens, UniProt P08588).
T1 construct: expressed in transfected cells; host or cells: CHO cells (stably transfected subclones; membranes)
The test can be described thus: Antagonist binding at β1-adrenoceptors, displacement of [125I]-iodocyanopindolol. The conditions noted are these: CHO cell plasma membranes; from binding IC50 by Cheng-Prusoff equation; read-out: Beta-1 Ki. The method, then:
(§1) Antagonist and Agonist Activity at Human β1, β2, and β3 -Adrenoceptors.
(§2) Subclones of CHO cells are stably transfected with each of the human β1, β2 and β3 -adrenoceptors^1. Cells are then disrupted by immersion in ice-cold lysis buffer (10 mM TRIS, 2 mM EDTA, pH 7.4) containing protease inhibitors leupeptin and benzamidine (5 μg/ml) and soyabean trypsin inhibitor (10 μg/ml). Membranes are prepared by the method of Bouvier el. al.^2 and stored in 1 ml aliquots in liquid N2 for future use.
(§3) Antagonist Binding at β1, and β2 -Adrenoceptors
(§4) Displacement of [^125 I]-iodocyanopindolol from CHO cell plasma membranes transfected with either the human β1, or β2 -adrenoceptors is carried out by the method of Blin et. al.^5. Ki values (nM) are calculated from the binding IC50 values for each agonist, using the Cheng-Prusoff equation.
(In general: Displacement assays read how much labelled ligand stays bound in the presence of the test substance.)

In a further test the target is T2, human β3-adrenoceptor (Homo sapiens, UniProt P13945).
T2 construct: expressed in transfected cells; host or cells: CHO cells (stably transfected subclones; membranes)
T2 sequence (P13945 whole entry): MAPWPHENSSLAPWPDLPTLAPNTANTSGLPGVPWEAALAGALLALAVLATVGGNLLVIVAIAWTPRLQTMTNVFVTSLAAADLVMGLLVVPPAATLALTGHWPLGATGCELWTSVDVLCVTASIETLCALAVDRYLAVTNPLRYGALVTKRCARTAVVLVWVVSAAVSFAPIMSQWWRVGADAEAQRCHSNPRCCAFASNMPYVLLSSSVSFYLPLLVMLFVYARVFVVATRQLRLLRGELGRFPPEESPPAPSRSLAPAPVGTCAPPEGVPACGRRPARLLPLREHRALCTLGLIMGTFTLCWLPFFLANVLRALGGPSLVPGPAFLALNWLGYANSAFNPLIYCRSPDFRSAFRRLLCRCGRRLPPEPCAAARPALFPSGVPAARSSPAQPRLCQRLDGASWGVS
Nature of the test: β3-adrenoceptor-mediated adenylyl cyclase activity (agonist). The note with it: CHO cell plasma membranes; for EC50: agonist concentration producing 50% activation of adenylyl cyclase, cAMP over 20 minutes, read-out: Beta-3 EC50; for Emax: maximum response relative to that produced by (-) isoprenaline, read-out: Beta-3 (IA), intrinsic activity. The class given is biochemical. The method, then:
as §1, §2
β3 -Adrenoceptor-Mediated Adenylyl Cyclase Activity
Adenylyl cyclase activity is assayed by the method of Kirkham et. al.^3 by the addition of 40 μl (70-80 μg protein) to the incubation medium of the above CHO cell plasma membranes transfected with the human β3 -adrenoceptor. cAMP produced over 20 minutes is separated from ATP by the method of Salomon et al.^4. Agonist EC50 values and intrinsic activities are expressed as the concentration of agonist producing 50% activation of adenylyl cyclase and the maximum response produced by each agonist relative to that produced by (-) isoprenaline respectively.

For another test, the target named is T3, human β2-adrenoceptor (Homo sapiens, UniProt P07550).
T3 construct: expressed in transfected cells; host or cells: CHO cells (stably transfected subclones; membranes)
T3 sequence (P07550 whole entry): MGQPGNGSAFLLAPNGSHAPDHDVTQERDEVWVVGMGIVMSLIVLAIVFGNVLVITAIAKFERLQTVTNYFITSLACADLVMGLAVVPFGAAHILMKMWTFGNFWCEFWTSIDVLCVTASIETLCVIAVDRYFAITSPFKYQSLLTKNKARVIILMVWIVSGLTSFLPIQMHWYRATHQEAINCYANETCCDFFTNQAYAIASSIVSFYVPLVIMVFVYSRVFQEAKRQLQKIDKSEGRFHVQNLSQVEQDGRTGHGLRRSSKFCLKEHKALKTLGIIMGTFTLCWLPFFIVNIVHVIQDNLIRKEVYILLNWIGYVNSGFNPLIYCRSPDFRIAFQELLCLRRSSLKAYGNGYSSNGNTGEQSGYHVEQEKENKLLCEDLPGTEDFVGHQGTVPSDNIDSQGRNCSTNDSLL
Nature of the test: Antagonist binding at β2-adrenoceptors, displacement of [125I]-iodocyanopindolol. The note with it: CHO cell plasma membranes; from binding IC50 by Cheng-Prusoff equation; read-out: Beta-2 Ki. The method, then:
as §1, §2, §3, §4

Counter-ions that a name gives are not always drawn.

T1 sequence (P08588 whole entry): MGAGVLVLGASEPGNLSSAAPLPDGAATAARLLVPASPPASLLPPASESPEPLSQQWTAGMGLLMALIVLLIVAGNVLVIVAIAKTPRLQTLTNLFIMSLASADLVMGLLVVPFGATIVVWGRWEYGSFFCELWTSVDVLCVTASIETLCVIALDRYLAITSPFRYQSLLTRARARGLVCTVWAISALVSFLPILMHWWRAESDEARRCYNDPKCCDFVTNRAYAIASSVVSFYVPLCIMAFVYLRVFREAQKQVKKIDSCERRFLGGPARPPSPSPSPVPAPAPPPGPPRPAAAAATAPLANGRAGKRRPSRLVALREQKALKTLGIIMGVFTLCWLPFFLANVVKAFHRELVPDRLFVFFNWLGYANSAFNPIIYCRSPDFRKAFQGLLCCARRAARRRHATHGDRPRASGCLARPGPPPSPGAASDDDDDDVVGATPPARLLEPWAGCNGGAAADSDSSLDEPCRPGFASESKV

For the compound `O=P(O)(COc1ccc(CCNC[C@H](O)COc2ccc(O)cc2)cc1)C1CCCCC1` [Example 29, (S)-4-{2-[2-Hydroxy-3-(4-hydroxyphenoxy)propylamino]ethyl}phenoxymethylcyclohexylphosphinic acid, lithium salt], at human β1-adrenoceptor, the inhibition constant Ki – broadly, a measure of affinity in units of concentration, obtained from inhibition or displacement – came out at 288 µM. Also, on human β3-adrenoceptor, the EC50 turned out to be 1.7 µM and the Emax amounted to 72%. Besides, the Ki at human β2-adrenoceptor is 269 µM.
As for `C[C@H](Cc1ccc(OCP(=O)(O)OCCCOCc2ccccc2)cc1)NC[C@H](O)COc1ccc(O)c(CO)c1` [Example 17, (SR)-4-{2-[2-Hydroxy-3-(4-hydroxy-3-hydroxymethylphenoxy)propylamino]propyl}phenoxymethylphosphonic acid, (3-benzyloxypropyl)ester, lithium salt], the Ki at human β1-adrenoceptor came to 21 µM. Further, on human β3-adrenoceptor, the EC50 is 1.1 µM and the Emax worked out at 70%. Moreover, the Ki at human β2-adrenoceptor stood at 10 µM.
On the same counts, the results for `C[C@H](Cc1ccc(OCP(=O)(O)c2ccccc2)cc1)NC[C@H](O)COc1ccc(O)c(CO)c1` (racemic) [Example 21, (SR)-4-{2-[2-Hydroxy-3-(4-hydroxy-3-hydroxymethylphenoxy)propylamino]propyl}phenoxymethyl-phenylphosphinic acid, lithium salt] are 155 µM, 1.26 µM, over 100% and 15 µM.

Values taken from patent publication US5726165A, “Derivatives of 4-(2-aminoethyl)phenoxymethyl-phosphonic and -phosphinic acid and pharmaceutical and veterinary uses therefor” (SmithKline Beecham p.l.c., priority 1994, dated 1998).
